Data taken from patent publication US8802597B2, “Herbicidal pyrimidines” (E I du Pont de Nemours and Company, priority 2003, dated 2014).

Key:
Assay type in all cases: in vivo
[1] = tested on: velvetleaf (Abutilon theophrasti); assay: Test A pre/postemergence
Summary of the method: (§1)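 Seeds sown in loam–sand blend received a preemergence directed soil spray of test chemical in non-phytotoxic solvent with surfactant; same-formulation postemergence spray given concurrently to plants 2–10 cm tall at 1- to 2-leaf stage. Greenhouse ~ten days, then visual injury rating versus untreated controls, 0 (no effect) to 100 (complete control).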

[2] = tested on: giant foxtail (Setaria faberi); assay: Test A pre/postemergence
Summary of the method: as §1

[3] = tested on: redroot pigweed (Amaranthus retroflexus); assay: Test A pre/postemergence
Summary of the method: as §1

[4] = tested on: barnyardgrass (Echinochloa crus-galli); assay: Test A pre/postemergence
Summary of the method: as §1

[5] = tested on: morningglory (Ipomoea spp.); assay: Test A pre/postemergence
Summary of the method: as §1

[6] = tested on: crabgrass (Digitaria sanguinalis); assay: Test A pre/postemergence
Summary of the method: as §1

[7] = tested on: transplanted rice seedlings (Oryza sativa cv. ‘Japonica-M202’); assay: Test E flooded paddy water application; conditions: Flood, 21 days, scale 0 to 100 (0 no effect, 100 complete control)
Text: (§2) Three plastic pots (ca. 16-cm diameter) per rate were partially filled with sterilized Tama silt loam soil comprising a 35:50:15 ratio of sand, silt and clay and 2.6% organic matter. Separate plantings for each of the three pots were as follows. Seeds from the U.S. of ducksalad (Heteranthera limosa), smallflower umbrella sedge (Cyperus difformis) and purple redstem (Ammannia coccinea), were planted into one 16-cm pot for each rate. Seeds from the U.S. of rice flatsedge (Cyperus iria), bearded (brdd.) sprangletop (Leptochloa fusca ssp. fascicularis), one stand of 9 or 10 water seeded rice seedlings (Oryza sativa cv. ‘Japonica-M202’), and one stand of 6 transplanted rice seedlings (Oryza sativa cv. ‘Japonica-M202’) were planted into one 16-cm pot for each rate. Seeds from the U.S. of barnyardgrass (Echinochloa crus-galli), late watergrass (Echinochloa oryzicola), early watergrass (Echinochloa oryzoides) and junglerice (Echinochloa colona) were planted into one 16-cm pot for each rate. Plantings were sequential so that crop and weed species were at the 2.0 to 2.5-leaf stage at time of treatment.
(§3) Potted plants were grown in a greenhouse with day/night temperature settings of 29.5/26.7° C., and supplemental balanced lighting was provided to maintain a 16-hour photoperiod. Test pots were maintained in the greenhouse until test completion.
(§4) At time of treatment, test pots were flooded to 3 cm above the soil surface, treated by application of test compounds directly to the paddy water, and then maintained at that water depth for the duration of the test. Effects of treatments on rice and weeds were visually evaluated by comparison to untreated controls after 21 days. Plant response ratings, summarized in Table E, are based on a scale of 0 to 100 where 0 is no effect and 100 is complete control. A dash (-) response means no test result.

[8] = tested on: water seeded rice seedlings (Oryza sativa cv. ‘Japonica-M202’); assay: Test E flooded paddy water application; conditions: Flood, 21 days, scale 0 to 100 (0 no effect, 100 complete control)
Text: as §2, §3, §4

[9] = tested on: early watergrass (Echinochloa oryzoides); assay: Test E flooded paddy water application; conditions: Flood, 21 days, scale 0 to 100 (0 no effect, 100 complete control)
Text: as §2, §3, §4

[10] = tested on: rice flatsedge (Cyperus iria); assay: Test E flooded paddy water application; conditions: Flood, 21 days, scale 0 to 100 (0 no effect, 100 complete control)
Text: as §2, §3, §4

[11] = tested on: barnyardgrass (Echinochloa crus-galli); assay: Test E flooded paddy water application; conditions: Flood, 21 days, scale 0 to 100 (0 no effect, 100 complete control)
Text: as §2, §3, §4

[12] = tested on: junglerice (Echinochloa colona); assay: Test E flooded paddy water application; conditions: Flood, 21 days, scale 0 to 100 (0 no effect, 100 complete control)
Text: as §2, §3, §4

[13] = tested on: smallflower umbrella sedge (Cyperus difformis); assay: Test E flooded paddy water application; conditions: Flood, 21 days, scale 0 to 100 (0 no effect, 100 complete control)
Text: as §2, §3, §4

[14] = tested on: purple redstem (Ammannia coccinea); assay: Test E flooded paddy water application; conditions: Flood, 21 days, scale 0 to 100 (0 no effect, 100 complete control)
Text: as §2, §3, §4

[15] = tested on: ducksalad (Heteranthera limosa); assay: Test E flooded paddy water application; conditions: Flood, 21 days, scale 0 to 100 (0 no effect, 100 complete control)
Text: as §2, §3, §4

[16] = tested on: late watergrass (Echinochloa oryzicola); assay: Test E flooded paddy water application; conditions: Flood, 21 days, scale 0 to 100 (0 no effect, 100 complete control)
Text: as §2, §3, §4

[17] = tested on: bearded (brdd.) sprangletop (Leptochloa fusca ssp. fascicularis); assay: Test E flooded paddy water application; conditions: Flood, 21 days, scale 0 to 100 (0 no effect, 100 complete control)
Text: as §2, §3, §4

[18] = Postemergence, 125 g ai/ha, 0 to 100 scale (0 no effect, 100 complete control)
[19] = Postemergence, 500 g ai/ha, 0 to 100 scale (0 no effect, 100 complete control)
[20] = Preemergence, 125 g ai/ha, 0 to 100 scale where 0 is no effect and 100 is complete control, approximately ten days
[21] = Preemergence, 500 g ai/ha, 0 to 100 scale where 0 is no effect and 100 is complete control, approximately ten days

CCOC(=O)c1nc(-c2ccc(Cl)c(Cl)c2)nc(N)c1Br [Compound 66]
75: Plant response rating, Velvetleaf [1, 19]
100: Redstem plant response rating ([14]; 250 g ai/ha) | Ducksalad plant response rating ([15]; 32 g ai/ha) | Ducksalad plant response rating ([15]; 64 g ai/ha) | Ducksalad plant response rating ([15]; 125 g ai/ha) | Ducksalad plant response rating ([15]; 250 g ai/ha)
15: Plant response rating, Crabgrass [6, 21]
95: Plant response rating, Ducksalad ([15]; 16 g ai/ha)
35: Plant response rating, Velvetleaf [1, 21] | Barnyardgrass plant response rating ([11]; 250 g ai/ha)
20: Plant response rating, Morningglory [5, 18]
50: Plant response rating, Velvetleaf [1, 18] | Plant response rating, Pigweed [3, 18]
10: Plant response rating, Pigweed [3, 21]
30: Plant response rating, Morningglory [5, 19]
0: Plant response rating, Velvetleaf [1, 20] | Plant response rating, Foxtail, Giant [2, 18] | Plant response rating, Foxtail, Giant [2, 19] | Plant response rating, Foxtail, Giant [2, 20] | Plant response rating, Foxtail, Giant [2, 21] | Plant response rating, Pigweed [3, 20] | Plant response rating, Barnyardgrass [4, 18] | Plant response rating, Barnyardgrass [4, 19] | Plant response rating, Barnyardgrass [4, 20] | Plant response rating, Barnyardgrass [4, 21] | Plant response rating, Morningglory [5, 20] | Plant response rating, Morningglory [5, 21] | Plant response rating, Crabgrass [6, 18] | Plant response rating, Crabgrass [6, 19] | Plant response rating, Crabgrass [6, 20] | Rice, Transplanted plant response rating ([7]; 32 g ai/ha) | Rice, Transplanted plant response rating ([7]; 64 g ai/ha) | Rice, Transplanted plant response rating ([7]; 125 g ai/ha) | Rice, Transplanted plant response rating ([7]; 250 g ai/ha) | Plant response rating, Rice, Transplanted ([7]; 16 g ai/ha) | Rice, Water Seeded plant response rating ([8]; 32 g ai/ha) | Rice, Water Seeded plant response rating ([8]; 64 g ai/ha) | Rice, Water Seeded plant response rating ([8]; 125 g ai/ha) | Rice, Water Seeded plant response rating ([8]; 250 g ai/ha) | Plant response rating, Rice, Water Seeded ([8]; 16 g ai/ha) | Watergrass, Early plant response rating ([9]; 32 g ai/ha) | Watergrass, Early plant response rating ([9]; 64 g ai/ha) | Watergrass, Early plant response rating ([9]; 125 g ai/ha) | Watergrass, Early plant response rating ([9]; 250 g ai/ha) | Plant response rating, Watergrass, Early ([9]; 16 g ai/ha) | Flatsedge, Rice plant response rating ([10]; 32 g ai/ha) | Flatsedge, Rice plant response rating ([10]; 64 g ai/ha) | Flatsedge, Rice plant response rating ([10]; 125 g ai/ha) | Flatsedge, Rice plant response rating ([10]; 250 g ai/ha) | Plant response rating, Flatsedge, Rice ([10]; 16 g ai/ha) | Barnyardgrass plant response rating ([11]; 32 g ai/ha) | Barnyardgrass plant response rating ([11]; 125 g ai/ha) | Plant response rating, Barnyardgrass ([11]; 16 g ai/ha) | Junglerice plant response rating ([12]; 32 g ai/ha) | Junglerice plant response rating ([12]; 64 g ai/ha) | Junglerice plant response rating ([12]; 125 g ai/ha) | Junglerice plant response rating ([12]; 250 g ai/ha) | Plant response rating, Junglerice ([12]; 16 g ai/ha) | Sedge, Umbrella plant response rating ([13]; 32 g ai/ha) | Sedge, Umbrella plant response rating ([13]; 64 g ai/ha) | Sedge, Umbrella plant response rating ([13]; 125 g ai/ha) | Sedge, Umbrella plant response rating ([13]; 250 g ai/ha) | Plant response rating, Sedge, Umbrella ([13]; 16 g ai/ha) | Redstem plant response rating ([14]; 32 g ai/ha) | Redstem plant response rating ([14]; 64 g ai/ha) | Plant response rating, Redstem ([14]; 16 g ai/ha) | Watergrass, Late plant response rating ([16]; 32 g ai/ha) | Watergrass, Late plant response rating ([16]; 64 g ai/ha) | Watergrass, Late plant response rating ([16]; 125 g ai/ha) | Watergrass, Late plant response rating ([16]; 250 g ai/ha) | Plant response rating, Watergrass, Late ([16]; 16 g ai/ha) | Sprangletop, Brdd. plant response rating ([17]; 32 g ai/ha) | Sprangletop, Brdd. plant response rating ([17]; 64 g ai/ha) | Sprangletop, Brdd. plant response rating ([17]; 125 g ai/ha) | Sprangletop, Brdd. plant response rating ([17]; 250 g ai/ha) | Plant response rating, Sprangletop, Brdd. ([17]; 16 g ai/ha)
65: Plant response rating, Pigweed [3, 19]
40: Redstem plant response rating ([14]; 125 g ai/ha)
